Assay: ATP stability over 362 days, processed under acidic and hot-fill conditions
Format: physicochemical
Details: acidic conditions (pH 2.8; b60 also says pH 2.5), hot-fill conditions
From the text: FIG. 5 is a graphical representation 500 of the unexpectedly good results achieved through the method and composition described in connection with FIG. 4. Specifically, the graphical representation 500 illustrates a comparison of ATP stability for a composition or product of the disclosure (specifically, Formula A prepared according to method 400) compared against a control ATP product processed under acidic conditions (pH 2.5) and hot-fill conditions. The ATP stability measurements were calculated over three hundred sixty-two (362 days). For the control ATP, pH 2.8 (Δ), y=116.03e^−0.012x, R^2=0.966. For the encapsulated ATP Formula A, pH 2.8 (Δ), y=100.37e^−0.003x, R^2=0.9591.
Specifically, Formula A continued to comprise about 33.43 wt % of ATP 100, 200 at the end of the 362 days, compared with the 1.44 wt % of ATP 100, 200 in the control ATP solution.
FIG. 7 is a graphical representation 700 of the unexpectedly good results achieved through the method and composition described in connection with FIG. 6. Specifically, the graphical representation 700 illustrates a comparison of ATP stability for a composition or product of the disclosure (specifically, Formula B prepared according to method 600) compared against a control ATP product processed under acidic conditions (pH 2.8) and hot-fill conditions. ATP stability measurements were calculated over three hundred sixty-two (362) days. […]

## Nc1ncnc2c1ncn2[C@@H]1O[C@H](COP(=O)(O)OP(=O)([O-])OP(=O)([O-])O)[C@@H](O)[C@H]1O.[Na+].[Na+] [control ATP, adenosine triphosphate (ATP) disodium salt]
  ATP 100, 200 comprised at the end of the 362 days: 1.44 wt %

Reference: patent publication US20240285541A1, “SHELF STABLE ORGANIC NUCLEOTIDE COMPOSITIONS AND METHODS OF MANUFACTURING THE SAME” (Glanbia Nutritionals, Inc., priority 2023, published 2024)
